For experiment [1], the target named is T1, PARG (Bos taurus, UniProt O02776). Put plainly: PARG assay. Type of experiment: biochemical. The note with it: SAR discussion in text.
Experiment [2] deals with PARP activity in SCC-25 cells. Put plainly: NAD assay: NAD. The experiment is classed as cell-based. Particulars: pretreated with 1mM compound, MNNG 5μg/mL for 30 minutes (Figure 2C).
The next experiment concerns the target PARP-1 (Homo sapiens, UniProt P09874). The note with it: previous study; cited from earlier work.
Experiment [3] relates to PARG activity in SCC-25 cells. Put plainly: PAR assay: PAR formation/turnover in SCC-25 cells after MNNG. The experiment is classed as cell-based.
Experiment [4] has as its target T1, PARG. The note with it: previous study; cited from earlier work.

T1 sequence (O02776 385-977): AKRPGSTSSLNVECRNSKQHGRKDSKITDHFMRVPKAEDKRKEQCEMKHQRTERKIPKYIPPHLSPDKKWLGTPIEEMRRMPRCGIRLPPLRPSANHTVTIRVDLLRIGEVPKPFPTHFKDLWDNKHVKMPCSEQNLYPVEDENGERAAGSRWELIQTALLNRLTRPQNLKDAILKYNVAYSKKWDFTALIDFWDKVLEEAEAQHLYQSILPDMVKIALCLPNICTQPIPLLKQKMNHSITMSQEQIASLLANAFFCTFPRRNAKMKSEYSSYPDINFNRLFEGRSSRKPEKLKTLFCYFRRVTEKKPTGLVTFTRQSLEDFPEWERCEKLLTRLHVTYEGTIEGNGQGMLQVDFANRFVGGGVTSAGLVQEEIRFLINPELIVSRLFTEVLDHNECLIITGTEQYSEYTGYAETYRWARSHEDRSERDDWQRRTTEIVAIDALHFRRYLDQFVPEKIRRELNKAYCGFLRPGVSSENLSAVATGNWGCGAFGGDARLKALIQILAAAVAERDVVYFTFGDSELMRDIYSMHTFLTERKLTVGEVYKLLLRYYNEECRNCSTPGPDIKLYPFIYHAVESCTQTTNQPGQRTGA
Sequence of PARP-1 (P09874 whole entry): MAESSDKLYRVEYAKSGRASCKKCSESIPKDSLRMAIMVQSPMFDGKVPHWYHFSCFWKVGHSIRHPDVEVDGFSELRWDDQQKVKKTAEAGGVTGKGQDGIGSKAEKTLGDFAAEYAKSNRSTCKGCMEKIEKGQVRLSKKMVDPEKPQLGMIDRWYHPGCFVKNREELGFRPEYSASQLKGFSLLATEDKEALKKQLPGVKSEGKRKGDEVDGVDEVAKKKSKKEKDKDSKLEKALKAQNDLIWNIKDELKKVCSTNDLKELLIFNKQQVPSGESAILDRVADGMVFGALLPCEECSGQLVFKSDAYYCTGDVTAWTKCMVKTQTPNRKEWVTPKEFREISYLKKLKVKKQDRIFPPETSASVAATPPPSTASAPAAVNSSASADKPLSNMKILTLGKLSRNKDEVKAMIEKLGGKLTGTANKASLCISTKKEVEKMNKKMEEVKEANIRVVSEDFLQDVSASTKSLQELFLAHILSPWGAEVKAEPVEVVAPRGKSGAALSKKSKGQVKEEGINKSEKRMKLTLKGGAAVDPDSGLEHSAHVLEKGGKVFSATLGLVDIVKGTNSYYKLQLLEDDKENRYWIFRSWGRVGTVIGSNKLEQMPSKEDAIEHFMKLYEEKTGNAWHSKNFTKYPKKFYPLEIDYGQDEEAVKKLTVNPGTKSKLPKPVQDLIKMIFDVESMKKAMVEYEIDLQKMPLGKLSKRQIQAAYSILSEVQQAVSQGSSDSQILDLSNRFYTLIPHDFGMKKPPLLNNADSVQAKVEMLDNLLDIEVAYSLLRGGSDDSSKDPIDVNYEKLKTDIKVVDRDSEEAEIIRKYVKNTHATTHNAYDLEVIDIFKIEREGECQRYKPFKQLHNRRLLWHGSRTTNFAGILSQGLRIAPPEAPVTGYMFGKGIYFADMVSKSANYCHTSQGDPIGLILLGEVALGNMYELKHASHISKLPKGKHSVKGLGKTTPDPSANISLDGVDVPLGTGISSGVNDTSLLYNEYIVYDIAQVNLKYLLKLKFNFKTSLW

`O=C(Nc1ccc(Oc2ccc3ccccc3c2)c(Cl)c1)c1cc(Cl)cc(Cl)c1` [Compound 6b, 3,5-dichloro-N-(3-chloro-4-(naphthalen-2-yloxy)phenyl)benzamide]: the “PARG inhibition (in words)” value on PARG [1] is recorded as “loss of detectable inhibition of PARG”. Further, the “inhibition of NAD(H) depletion (in words)” value in experiment [2] is “minimal effect”.

For the molecule `Oc1c(Cl)cc(Cl)cc1CNc1ccc(Oc2ccc3ccccc3c2)c(Cl)c1` [Compound 10, 2,4-dichloro-6-((3-chloro-4-(naphthalen-2-yloxy)phenylamino)methyl)phenol], the “PARG inhibition (in words)” value at PARG [1] is given as “loss of PARG inhibition”.

`O=C(Nc1ccc(O)c(Cl)c1)c1cc(Cl)cc(Cl)c1O` [Compound 8a, 3,5-dichloro-N-(3-chloro-4-hydroxyphenyl)-2-hydroxybenzamide]: at PARG [1], the “PARG inhibition (in words)” value is listed as “complete loss of PARG inhibition”.

For the molecule `O=C(Nc1ccccc1)c1cc(Cl)cc(Cl)c1O` [Compound 8h, 3,5-dichloro-2-hydroxy-N-benzamide], the “PARG inhibition (in words)” value on PARG [1] is given as “not enough to detect PARG inhibition”.

`O=C(Nc1cccc(Cl)c1)c1cc(Cl)cc(Cl)c1O` [Compound 8c, 3,5-dichloro-N-(3-chlorophenyl)-2-hydroxybenzamide]: the “PARG inhibition (in words)” value at PARG [1] is recorded as “PARG inhibition returned although at low potency”.

On to `Nc1ncnc2c1ncn2[C@@H]1O[C@H](COP(=O)(O)OP(=O)(O)OC[C@H]2NC[C@H](O)[C@@H]2O)[C@@H](O)[C@H]1O` [ADP-HPD, adenosine 5′-diphosphate (hydroxymethyl) pyrrolidinediol], for which the “inhibition of PARP-1 (in words)” value on PARP-1 is on record as “does not inhibit PARP-1”.

With `O=C(Nc1ccccc1Cl)c1cc(Cl)cc(Cl)c1O` [Compound 8b, 3,5-dichloro-N-(2-chlorophenyl)-2-hydroxybenzamide], the “PARG inhibition (in words)” value on PARG [1] is “slight loss of potency”.

Regarding `O=C(Nc1ccc(Oc2ccc3ccccc3c2)c(Cl)c1)c1cc(Cl)cc(Cl)c1O` [Compound 6a, 3,5-dichloro-N-(3-chloro-4-(naphthalen-2-yloxy)phenyl)-2-hydroxybenzamide], in experiment [2], the “inhibition of NAD(H) depletion (in words)” value is recorded as “partial inhibition of NAD(H) consumption”. The “increase of PAR accumulation at 10 min” value in experiment [3] (SCC-25 cells pre-incubated with 1mM compound, MNNG 5μg/mL (Figure 3B)) is given as “approximately 3 fold”. Moreover, the “inhibition of PARG in intact cells (in words)” value in experiment [3] (SCC-25 cells, 1mM compound, MNNG 5μg/mL) is reported as “nearly complete inhibition of PARG”.

As for `O=C(Nc1ccc(Cl)cc1)c1cc(Cl)cc(Cl)c1O` [Compound 8d, 3,5-dichloro-N-(4-chlorophenyl)-2-hydroxybenzamide], on PARG [1], the “PARG inhibition (in words)” value is recorded as “slight loss of potency”. In addition, the “inhibition of NAD(H) depletion (in words)” value in experiment [2] is “partial inhibition of NAD(H) consumption”.

`NC(=O)c1ccccc1` [Benzamide, benzamide, reference compound]: in experiment [2], the “inhibition of NAD(H) depletion (in words)” value is listed as “complete inhibition of NAD(H) depletion”. The “inhibition of PARG (in words)” value at PARG [4] is listed as “does not inhibit PARG”.

Turning to `Oc1c(Cl)cc(Cl)cc1/C=N/c1ccc(Oc2ccc3ccccc3c2)c(Cl)c1` [Compound 9, 2,4-dichloro-6-((3-chloro-4-(naphthalen-2-yloxy)phenylimino)methyl)phenol], the “PARG inhibition (in words)” value on PARG [1] is “loss of PARG inhibition”.

On to `COc1c(Cl)cc(Cl)cc1C(=O)Nc1ccc(Oc2ccc3ccccc3c2)c(Cl)c1` [Compound 6f, 3,5-dichloro-N-(3-chloro-4-(naphthalen-2-yloxy)phenyl)-2-methoxybenzamide], for which, at PARG [1], the “PARG inhibition (in words)” value was “loss of detectable PARG inhibition”.

As for `O=C(O)c1ccccc1C(=O)Nc1ccc(Oc2ccc3ccccc3c2)c(Cl)c1` [Compound 6g, 2-(3-chloro-4-(naphthalen-2-yloxy)phenylcarbamoyl)benzoic acid], the “PARG inhibition (in words)” value on PARG [1] is given as “PARG inhibition was retained”.

Regarding `NC(=O)c1cc(Cl)cc(Cl)c1O` [Compound 7, 3,5-dichloro-2-hydroxybenzamide], the “PARG inhibition (in words)” value at PARG [1] is given as “loss of detectable PARG inhibition”. For the same molecule, the “inhibition of NAD(H) depletion (in words)” value in experiment [2] is listed as “minimal effect”.
